Patent US20110136788A1, “THERAPEUTIC AGENT FOR IRRITABLE BOWEL SYNDROME” (priority 2008, published 2011)
Read-outs that look alike come from different tables or passages of the source. Values belong to the compound of their own block, whether it stands above or below them.

Columns and labels:
[1] = tested on: stress-induced bowel movement; conditions: various animals, references 6-9; cited from earlier work
rat TGR5 = target: T1, rat TGR5 (Rattus norvegicus, UniProt Q80T02); assay: cAMP production in CHO cell line expressing rat TGR5 (CHO-rTGR5); assay type: cell-based
T1 construct: expressed in transfected cells; host or cells: CHO cells
T1 sequence (Q80T02 1-329): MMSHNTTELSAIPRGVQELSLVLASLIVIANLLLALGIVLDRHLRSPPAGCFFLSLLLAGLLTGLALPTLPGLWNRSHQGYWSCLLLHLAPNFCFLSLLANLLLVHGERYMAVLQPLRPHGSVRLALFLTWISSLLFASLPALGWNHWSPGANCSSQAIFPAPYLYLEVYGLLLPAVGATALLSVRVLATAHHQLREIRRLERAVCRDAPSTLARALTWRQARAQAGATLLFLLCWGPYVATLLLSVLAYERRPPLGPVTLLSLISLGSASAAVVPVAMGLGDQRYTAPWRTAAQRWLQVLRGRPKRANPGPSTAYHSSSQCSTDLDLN
Procedure: [The procedure below names another species; the source lists this species under the same test.] (§1) CHO cell line expressing mouse TGR5 (CHO-mTGR5), which was prepared by a method known per se and using the mouse TGR5 expression vector, was suspended in an assay medium (Hanks' Balanced Salt Solution (Invitrogen) added with 0.2 mM isobutylmethylxanthine and 0.1% bovine albumin) at 1×10^7 cells/ml and stood at room temperature for 30 min. Then, a compound diluted with the assay medium to each concentration was added, and the mixture was stood still at room temperature for 30 min, and the cAMP amount was measured according to the protocol of ALPHA SCREEN cAMP ASSAY KIT (Perkin Elmer). […] The EC50 value was calculated by using GraphPad PRISM (GraphPad software) from the amount of cAMP produced by each compound.

[2] = tested on: rat ileum peristalsis motility; assay: rat exo-vivo ileum peristalsis; conditions: isolated ileum of male SD rats, intraluminal pressure; FIG. 3
Procedure: Male SD rats were used under non-fasting conditions. On the day of the test, 4-5 cm of the ileum was isolated, and the oral side end and aboral side end were subjected to cannulation. 95% oxygen/5% carbon dioxide was passed therethrough and placed horizontally in a bath filled with a Krebs solution warmed to 37° C. A tube outflux on the aboral side was set at about 4 cm higher than the bath, 95% oxygen/5% carbon dioxide was passed from the tube on the oral side and perfused with a Krebs solution warmed to 37° C. at a flow rate of 10 cc/hr to induce peristalsis motility. Changes of the intraluminal pressure of the intestine due to the peristalsis motility of the ileum were recorded by a transducer from the tube on the oral side. A compound at various concentrations was added to the Krebs solution surrounding the ileum. When a compound at various concentrations was added, the Krebs solution was exchanged immediately before the addition.

human TGR5 = target: T2, human TGR5 (Homo sapiens, UniProt Q8TDU6); assay: cAMP production in CHO cell line expressing human TGR5 (CHO-hTGR5); assay type: cell-based
T2 construct: expressed in transfected cells; host or cells: CHO cells
T2 sequence (Q8TDU6 1-330): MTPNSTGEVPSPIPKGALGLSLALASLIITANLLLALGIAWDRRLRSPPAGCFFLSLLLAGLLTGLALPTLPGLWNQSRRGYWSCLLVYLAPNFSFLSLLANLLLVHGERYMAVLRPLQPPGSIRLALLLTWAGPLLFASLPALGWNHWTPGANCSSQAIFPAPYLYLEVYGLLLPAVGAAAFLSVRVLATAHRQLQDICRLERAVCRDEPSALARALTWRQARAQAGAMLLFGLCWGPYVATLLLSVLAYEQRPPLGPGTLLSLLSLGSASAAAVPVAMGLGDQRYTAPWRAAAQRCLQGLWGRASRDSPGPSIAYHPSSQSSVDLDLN
Procedure: [The procedure below names another species; the source lists this species under the same test.] as §1

[3] = tested on: restraint stress-induced bowel movement, male C57BL/6 mice; assay: mouse restraint stress-induced bowel movement; assay type: in vivo; conditions: intraperitoneal; for suppression of restraint stress-induced bowel movement: 10 min before stress loading, excreted feces in 2 hr, FIG. 2
Procedure: Male C57BL/6 mice were used under non-fasting conditions. On the day of the test, the body weight was measured, and the mice were individually bred for 2 hr. Thereafter, the mice were placed in a mouse restraint stress cage, and the number of excreted feces in 2 hr was counted. The normal group was individually bred for 2 hr, and subsequently was bred under the same conditions, the number of excreted feces in 2 hr was counted. Each drug (same as in Example 1) was suspended in 0.5% methylcellulose, and intraperitoneally administered at a dose of 10 ml/kg 10 min before stress loading.

mouse TGR5 = target: T3, mouse TGR5 (Mus musculus, UniProt Q80SS6); assay: cAMP production in CHO cell line expressing mouse TGR5 (CHO-mTGR5); assay type: cell-based
T3 construct: expressed in transfected cells; host or cells: CHO cells, expression vector pAKKO-111H
T3 sequence (Q80SS6 1-329): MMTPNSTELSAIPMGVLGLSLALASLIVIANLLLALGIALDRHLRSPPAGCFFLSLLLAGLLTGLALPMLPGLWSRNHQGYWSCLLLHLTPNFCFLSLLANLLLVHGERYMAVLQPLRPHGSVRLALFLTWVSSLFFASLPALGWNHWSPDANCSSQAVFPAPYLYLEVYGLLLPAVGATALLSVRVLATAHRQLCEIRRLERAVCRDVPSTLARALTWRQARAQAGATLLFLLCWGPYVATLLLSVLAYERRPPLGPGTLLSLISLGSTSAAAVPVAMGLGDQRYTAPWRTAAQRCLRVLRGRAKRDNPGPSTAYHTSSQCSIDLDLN
Procedure: as §1

[4] = CHO-rTGR5, cAMP production, read-out: EC50 value
[5] = CHO-hTGR5, cAMP production, read-out: EC50 value
[6] = Table 8, rat TGR5, read-out: EC50 (M) Rat

Structure (SMILES): Cc1[nH]cnc1CN1CCc2c(c3ccccc3n2C)C1=O [Alosetron]
suppression of stress-induced bowel movement [1]: suppress stress-induced bowel movement

Structure (SMILES): CC(c1cc(C(F)(F)F)cc(C(F)(F)F)c1)N1Cc2c(-c3ccccc3F)ccnc2OCC1=O (centres unmarked) [Compound B, 4-{1-[3,5-bis(trifluoromethyl)phenyl]ethyl}-6-(2-fluorophenyl)-4,5-dihydropyrido[3,2-f][1,4]oxazepin-3(2H)-one]
EC50 (rat TGR5; [4]): 2.4e-09 M
suppressive action on the restraint stress-induced bowel movement ([3]; dose 30 mg/kg): statistically significant suppressive action
suppression of restraint stress-induced bowel movement [3]: suppressed a restraint stress-induced bowel movement in a dose-dependent manner
EC50 (human TGR5; [5]): 6.2e-10 M
EC50 (mouse TGR5): 0.025 µM

Structure (SMILES): O=C1COc2nccc(-c3ccccc3F)c2CN1Cc1cc(C(F)(F)F)cc(C(F)(F)F)c1 [Compound A, 4-[3,5-bis(trifluoromethyl)benzyl]-6-(2-fluorophenyl)-4,5-dihydropyrido[3,2-f][1,4]oxazepin-3(2H)-one]
suppressive action on the restraint stress-induced bowel movement ([3]; dose 30 mg/kg): statistically significant suppressive action
suppression of restraint stress-induced bowel movement [3]: suppressed a restraint stress-induced bowel movement in a dose-dependent manner
suppression of peristalsis motility of the ileum [2]: suppressed the peristalsis motility of the ileum in a dose-dependent manner

The next lines start with results.

EC50 (rat TGR5; [4]): 3.2e-07 M
EC50 (human TGR5; [5]): 2.4e-07 M
EC50 (human TGR5; Table 8, human TGR5, read-out: EC50 (M) Human): 2.4e-07 M
Structure (SMILES): O=C1COc2nccc(-c3ccccc3O)c2CN1Cc1cc(C(F)(F)F)cc(C(F)(F)F)c1 [Compound E, 4-[3,5-bis(trifluoromethyl)benzyl]-6-(2-hydroxyphenyl)-4,5-dihydropyrido[3,2-f][1,4]oxazepin-3(2H)-one]
suppression of peristalsis motility of the ileum [2]: suppressed the peristalsis motility of the ileum in a dose-dependent manner

EC50 (rat TGR5; [4]): 9.9e-09 M
EC50 (rat TGR5; [6]): 9.9e-09 M
EC50 (human TGR5; [5]): 2.1e-09 M
EC50 (mouse TGR5): 0.025 µM
Structure (SMILES): CN1C(=O)C(C)(C)N(C(=O)COc2cccc3cnccc23)c2ccc(F)cc21 [Compound C, 7-fluoro-4-[(isoquinolin-5-yloxy)acetyl]-1,3,3-trimethyl-3,4-dihydroquinoxalin-2(1H)-one]
suppressive action on the restraint stress-induced bowel movement ([3]; dose 10 mg/kg): statistically significant suppressive action
suppressive action on the restraint stress-induced bowel movement ([3]; dose 30 mg/kg): statistically significant suppressive action
suppression of restraint stress-induced bowel movement [3]: suppressed a restraint stress-induced bowel movement in a dose-dependent manner

EC50 (rat TGR5; [4]): 1.2e-07 M
EC50 (rat TGR5; [6]): 1.2e-07 M
EC50 (human TGR5; [5]): 1.6e-09 M
EC50 (mouse TGR5): 0.73 µM
Structure (SMILES): CC(c1cc(C(F)(F)F)cc(C(F)(F)F)c1)N1CCOc2nccc(-c3ccccc3)c2C1.Cl (centres unmarked) [Compound D, 4-{1-[3,5-bis(trifluoromethyl)phenyl]ethyl}-6-phenyl-2,3,4,5-tetrahydropyrido[3,2-f][1,4]oxazepine hydrochloride]
suppressive action on the restraint stress-induced bowel movement ([3]; dose 3 mg/kg): statistically significant suppressive action
suppressive action on the restraint stress-induced bowel movement ([3]; dose 10 mg/kg): statistically significant suppressive action
suppressive action on the restraint stress-induced bowel movement ([3]; dose 30 mg/kg): statistically significant suppressive action
suppression of restraint stress-induced bowel movement [3]: suppressed a restraint stress-induced bowel movement in a dose-dependent manner
suppression of peristalsis motility of the ileum [2]: suppressed the peristalsis motility of the ileum in a dose-dependent manner
